Earlier results in US10016389B2, “Method of making liposomes, liposome compositions made by the methods, and methods of using the same” (LivOn Laboratories, priority 2011, dated 2018).

Legend:
[1] = not given; remark: listed apart in the source
[2] = not given; remark: listed apart in the source
[3] = not given; remark: listed apart in the source
[4] = 1000 mg daily, 42 days
[5] = rat populations

SMILES | improvement of insulin sensitivity (oral 600, 1200 or 1800 mg/day, after 4 weeks) | improvement of insulin-stimulated glucose disposal (insulin sensitivity) (single intravenous infusion of 1000 mg, vs placebo infusion) | survival rate after a stroke vs untreated animals [1] | reduction of risk of cerebrovascular deaths ([2]; Linxian trial, 120 mg daily plus molybdenum for 5-6 years, 10 years follow-up) | lower risk of coronary heart disease ([2]; ≥700 mg/day, pooled analysis of nine studies) | peak plasma concentrations ([3]; 3 g orally every 4 hours, predicted by pharmacokinetic modeling) | half-life ([3]; in vivo) | plasma concentrations ([3]; intravenous administration) | average fasting blood glucose levels ([4]; fell from 169.33 mg/dl) | average LDL ([4]; reduced from 130.95 mg/dl) | Average HbA1C ([4]; reduced from 8,82%) | Insulin levels ([4]; reduced from 16.91 microunits/mL) | oral LD50 [5]
O=C(O)CCCCC1CCSS1 (racemic) [racemic ALA, alpha lipoic acid] | 25% | 50% | four times greater survival rate | – | – | – | – | – | – | – | – | – | –
O=C1O[C@H]([C@@H](O)CO)C(O)=C1O [vitamin C, L-ascorbic acid] | – | – | – | 8% | 25% | 220 µmol/L | 30 min | ≤ 26,000 micromol/L | 144.80 mg/dL | 125.91 mg/dL | 7.66% | 8.77 microunits/mL | 11,900 mg per kg
